Tests used:
[1] = tested on: Potato Leafhopper (Empoasca fabae Harris); test: Test H: control of Potato Leafhopper on Longio bean plant, contact and/or systemic; type: in vivo; settings: 144 h, sprayed at 250 ppm, post-infested with adults, visually assessed after 6 days
Experimental: (§1) Test compounds were formulated using a solution containing 10% acetone, 90% water and 300 ppm X-77® Spreader Lo-Foam Formula non-ionic surfactant containing alkylarylpolyoxyethylene, free fatty acids, glycols and isopropanol (Loveland Industries, Inc.). The formulated compounds were applied in 1 mL of liquid through a SUJ2 atomizer nozzle with ⅛ JJ custom body (Spraying Systems Co.) positioned 1.27 cm (0.5 inches) above the top of each test unit. All experimental compounds in this screen were sprayed at 250 ppm and replicated three times. After spraying of the formulated test compound, each test unit was allowed to dry for 1 hour and then a black, screened cap was placed on top. The test units were held for 6 days in a growth chamber at 19–21° C. and 50–70% relative humidity. Each test unit was then visually assessed for insect mortality.
For evaluating control of Potato Leafhopper (Empoasca fabae Harris) through contact and/or systemic means, the test unit consisted of a small open container with a 5–6 day old Longio bean plant (primary leaves emerged) inside. White sand was added to the top of the soil and one of the primary leaves was excised prior to application. Test compounds were formulated and sprayed at 250 ppm and replicated three times as described for Test E. After spraying, the test units were allowed to dry for 1 hour before they were post-infested with 5 Potato Leafhoppers (18 to 21 day old adults). A black, screened cap is placed on the top of the cylinder. The test units were held for 6 days in a growth chamber at 19–21° C. and 50–70% relative humidity. Each test unit was then visually assessed for insect mortality.

[2] = tested on: cotton melon aphid (Aphis gossypii); test: Test F: control of cotton melon aphid on cotton plant, contact and/or systemic; type: in vivo; settings: 144 h, sprayed at 250 ppm, visually rated after 6 days
Experimental: as §1
For evaluating control of cotton melon aphid (Aphis gossypii) through contact and/or systemic means, the test unit consisted of a small open container with a 6–7-day-old cotton plant inside. This was pre-infested with 30–40 aphids on a piece of leaf according to the cut-leaf method described for Test E, and the soil of the test unit was covered with a layer of sand.
Test compounds were formulated and sprayed at 250 ppm as described for Test E. The applications were replicated three times. After spraying, the test units were maintained in a growth chamber and then visually rated as described for Test E.

[3] = tested on: green peach aphid (Myzus persicae); test: Test E: control of green peach aphid on radish plant, contact and/or systemic; type: in vivo; settings: 144 h, sprayed at 250 ppm, visually assessed after 6 days
From the text: For evaluating control of green peach aphid (Myzus persicae) through contact and/or systemic means, the test unit consisted of a small- open container with a 12–15-day-old radish plant inside. This was pre-infested by placing on a leaf of the test plant 30–40 aphids on a piece of leaf excised from a culture plant (cut-leaf method). The larvae moved onto the test plant as the leaf piece desiccated. After pre-infestation, the soil of the test unit was covered with a layer of sand.
as §1

[4] = tested on: Corn Planthopper (Peregrinus maidis); test: Test G: control of Corn Planthopper on corn (maize) plant, contact and/or systemic; type: in vivo; settings: 144 h, sprayed at 250 ppm, post-infested with nymphs, visually assessed after 6 days
Experimental: as §1
For evaluating control of Corn Planthopper (Peregrinus maidis) through contact and/or systemic means, the test unit consisted of a small open container with a 3–4 day old corn (maize) plant (spike) inside. White sand was added to the top of the soil prior to application. […] Each test unit was then visually assessed for insect mortality.

melting point [°C] | SMILES | mortality at 250 ppm [1] [%] | mortality at 250 ppm [2] [%] | mortality at 250 ppm [3] [%] | mortality at 250 ppm [4] [%]
– | O=C1c2cc(Cl)cc(Cl)c2N(C(=O)c2cc(Cl)nn2-c2ncccc2Cl)C(c2c[nH]cn2)N1Cl (centres unmarked) [Compound 24] | ≥ 80 | – | – | –
– | Cc1cc(Cl)cc2c1N(C(=O)c1cc(C(F)(F)F)nn1-c1ncccc1Cl)CN(C(C)C)C2=O [Compound 16, 6-Chloro-1-[[1-(3-Chloro-2-pyridinyl)-3-(trifluoromethyl)-1H-pyrazol-5-yl]carbonyl]-2,3-dihydro-8-methyl-3-(1-methylethyl)-4(1H)-quinazolinone] | ≥ 80 | ≥ 80 | – | –
– | O=C1NCN(C(=O)c2cc(C(F)(F)F)nn2-c2ncccc2Cl)c2c(Cl)cc(Cl)cc21 [Compound 29, 6,8-Dichloro-1-[[1-(3-Chloro-2-pyridinyl)-3-(trifluoromethyl)-1H-pyrazol-5-yl]carbonyl]-2,3-dihydro-4(1H)-quinazolinone] | ≥ 80 | ≥ 80 | ≥ 80 | –
– | CC(C)N1CN(C(=O)c2cc(Cl)nn2-c2ncccc2Cl)c2c(Cl)cc(Cl)cc2C1=O [Compound 8, 6,8-Dichloro-1-[[3-Chloro-1-(3-Chloro-2-pyridinyl)-1H-pyrazol-5-yl]carbonyl]-2,3-dihydro-3-(1-methylethyl)-4(H)-quinazolinone] | ≥ 80 | ≥ 80 | ≥ 80 | –
– | CC(C)N1CN(C(=O)c2cc(Br)nn2-c2ncccc2Cl)c2c(Cl)cc(Cl)cc2C1=O [Compound 9, 1-[[3-Bromo-1-(3-Chloro-2-pyridinyl)-1H-pyrazol-5-yl]carbonyl]-6,8-dichloro-2,3-dihydro-3-(1-methylethyl)-4-(1H)-quinazolinone] | ≥ 80 | ≥ 80 | ≥ 80 | –
238 to 240 | Cc1cc(Cl)cc2c1N(C(=O)c1cc(Cl)nn1-c1ncccc1Cl)CN(C)C2=O [Compound 17, 6-Chloro-1-[[3-Chloro-1-(3-Chloro-2-pyridinyl)-1H-pyrazol-5-yl]carbonyl]-2,3-dihydro-3,8-dimethyl-4(1H)-quinazolinone] | – | – | – | –
135 to 156 | O=C1c2cc(Cl)cc(Cl)c2N(C(=O)c2cc(Cl)nn2-c2ncccc2Cl)C(c2cccnc2)N1Cl (centres unmarked) [Compound 22] | – | – | – | –
– | Cc1cc(Cl)cc2c1N(C(=O)c1cc(C(F)(F)F)nn1-c1ncccc1Cl)CN(C)C2=O [Compound 19, 6-Chloro-1-[[1-(3-Chloro-2-pyridinyl)-3-(tifluoromethyl)-1H-pyrazol-5-yl]carbonyl]-2,3-dihydro-3,8-dimethyl-4(1H)-quinazolinone] | ≥ 80 | ≥ 80 | ≥ 80 | –
– | CN1CN(C(=O)c2cc(Cl)nn2-c2ncccc2Cl)c2c(Cl)cc(Cl)cc2C1=O [Compound 11, 6-8-Dichloro-1-[[3-Chloro-1-(3-Chloro-2-pyridinyl)-1H-pyrazol-5-yl]carbonyl]-2,3-dihydro-3-methyl-4(1H)-quinazolinone] | ≥ 80 | ≥ 80 | ≥ 80 | –
219 to 220 | Cc1cc(Cl)cc2c1N(C(=O)c1cc(Cl)nn1-c1ncccc1Cl)CN(C(C)C)C2=O [Compound 14, 6-Chloro-1-[[3-Chloro-1-(3-Chloro-2-pyridinyl)-1H-pyrazol-5-yl]carbonyl]-2,3-dihydro-8-methyl-3-(1-methylethyl)-4(1H)-quinazolinone] | – | – | – | –
– | CN1CN(C(=O)c2cc(C(F)(F)F)nn2-c2ncccc2Cl)c2c(Cl)cc(Cl)cc2C1=O [Compound 13, 6,8-Dichloro-1-[[1-(3-Chloro-2-pyridinyl)-3-(trifluoromethyl)-1H-pyrazol-5-yl]carbonyl]-2,3-dihydro-3-methyl-4(1H)-quinazolinone] | ≥ 80 | ≥ 80 | ≥ 80 | ≥ 80
– | CC(C)N1CN(C(=O)c2cc(C(F)(F)F)nn2-c2ncccc2Cl)c2c(Cl)cc(Cl)cc2C1=O [Compound 10, 6,8-Dichloro-1-[[1-(3-Chloro-2-pyridinyl)-3-(trifluoromethyl)-1H-pyrazol-5-yl]carbonyl]-2,3-dihydro-3-(1-methylethyl)-4(1H)-quinazolinone] | ≥ 80 | – | – | –
– | CN1CN(C(=O)c2cc(Br)nn2-c2ncccc2Cl)c2c(Cl)cc(Cl)cc2C1=O [Compound 12, 1-[[3-Bromo-1-(3-Chloro-2-pyridinyl)-1H-pyrazol-5-yl]carbonyl]-6,8-dichloro-2,3-dihydro-3-methyl-4(1H)-quinazolinone] | ≥ 80 | ≥ 80 | ≥ 80 | ≥ 80
254 to 255 | Cc1cc(Cl)cc2c1N(C(=O)c1cc(Br)nn1-c1ncccc1Cl)CN(C)C2=O [Compound 18, 1-[[3-Bromo-1-(3-Chloro-2-pyridinyl)-1H-pyrazol-5-yl]carbonyl]-6-Chloro-2,3-dihydro-3,8-dimethyl-4(1H)-quinazolinone] | – | – | – | –
143 to 190 | Cc1cccc2c1N(C(=O)c1cc(Cl)nn1-c1ncccc1Cl)C(C(=O)O)N(C(C)C)C2=O (centres unmarked) [Compound 20] | – | – | – | –
– | Cc1cc(Cl)cc2c1N(C(=O)c1cc(Br)nn1-c1ncccc1Cl)CN(C(C)C)C2=O [Compound 15, 1-[[3-Bromo-1-(3-Chloro-2-pyridinyl)-1H-pyrazol-5-yl]carbonyl]-6-Chloro-2,3-dihydro-8-methyl-3-(1-methylethyl)-4-(1H)-quinazolinone] | ≥ 80 | ≥ 80 | – | –
– | O=C1NCN(C(=O)c2cc(Cl)nn2-c2ncccc2Cl)c2c(Cl)cc(Cl)cc21 [Compound 28, 6,8-Dichloro-1-[[3-Chloro-1-(3-Chloro-2-pyridinyl)-1H-pyrazol-5-yl]carbonyl]-2,3-dihydro-4(1H)-quinazolinone] | – | – | ≥ 80 | –
